The text below walks through data of patent publication US4083951A, “Pharmaceutical composition” (Beecham Group Limited, priority 1976, dated 1978).

The test system of one data set is gastric erosions. As to the kind of experiment: gastric irritancy in starved rats, 1 hour contact time. It is filed as in vivo, rat. To be noted: rats fasted 18 hr. As to the method:
When tested in starved rats (18 hr. fasted) with a 1 hour contact time the following results were obtained:
*Mixture made from dry compounds
**Constituents dosed as solutions

The test system of data set [1] is phenylquinone induced writhing. As to the kind of experiment: phenylquinone induced writhing in the mouse (analgesic effects). In kind it is in vivo. Particulars: dose in terms of acetyl salicylate content, mixture at 2:1 ratio of equivalents, read-out: ED50 (analgesic effect). As to the method:
Sodium acetyl salicylate and mixtures of sodium acetyl salicylate and ferrous sulphate (2:1 ratio of equivalents) were tested against phenylquinone induced writhing in the mouse. Dose responses were plotted in terms of acetyl salicylate content and the following ED50 values obtained: […]

For the compound `CC(=O)Oc1ccccc1C(=O)O` [Sodium acetyl salicylate], the “% incidence gastric erosions” value in the data set on gastric erosions (dose 160 mg/kg) is recorded as 88%; in the data set on gastric erosions (dose 338 mg/kg) it was 75%. Further, in data set [1], the ED50 was 56 mg/kg.

Take `CC(=O)Oc1ccccc1C(=O)O` [Calcium acetyl salicylate]: in the data set with gastric erosions (dose 100 mg/kg), the “% incidence gastric erosions” value stood at 25%.
